Assay results reported in US9364480B2, “Pharmaceutical composition for preventing or treating cancer, containing enoblock as active ingredient” (GWANGJU INSTITUTE OF SCIENCE AND TECHNOLOGY, priority 2012, dated 2016).
Entries after “also recorded” stand apart in the source; their conditions may differ.

Columns and labels:
[1] = molecular target: purified human enolase (Homo sapiens, UniProt P06733); assay: Affinity matrix binding of purified enolase (Western blot)
Procedure: (§1) FIG. 4. […] (a) Affinity chromatography study for ENOblock in HCT116 cancer cells. […] (b) Sequence identification for the enolase monomer subunit. […] Mascot scores above 100 were deemed to be significant. […] Twenty micrograms of cell lysate from YD-10B oral cancer cells or Huh7 hepatocytes were used as positive controls. […] As a positive control, ENOblock affinity matrix was incubated with 200 μg of HCT 116 cell lysate; 50 μg cell lysate from HCT116 cancer cells was used as a positive control for the enolase antibody.
(§2) Affinity chromatography was used to identify the cellular target for AP-III-a4. Target identification strategies for the triazine library used in this study are relatively straightforward, because the molecules contain a built-in linker moiety. This allows conjugation to an affinity matrix with reduced risk of compromising biological activity.

[2] = tested on: 5′ AMP-activated protein kinase (AMPK) expression in hepatocytes; assay: AMPK expression in hepatocytes; format: cell-based; conditions: 10 μM, 24 h
Excerpt: (§3) FIG. 10. […] Error=SD; *=P<0.05 compared to the no drug (DMSO-treated) group. […] Error=SD; *=P<0.05 for reduced PEPCK expression compared to the no drug (DMSO-treated) group.

[3] = tested on: HCT116-xenotransplanted zebrafish; assay: Zebrafish tumor cell xenograft model; format: in vivo, zebrafish (Danio rerio)
Excerpt: FIG. 9. Toxicological study of ENOblock and in vivo analysis of anticancer activity. (A) Toxicological analysis of ENOblock treatment using the zebrafish larvae system. […] (B) Microscopic assessment of […] post fertilization (dfp) zebrafish larvae exposed to increasing doses of ENOblock. […] Error=SD; *=P<0.05 compared to the DMSO treated group. […] DMSO treatment served as a control. Three representative embryos are shown from each experimental group, and distributed cancer cell foci are designated with blue arrows. […] Error=SD; *=P<0.05 compared to the DMSO-treated group.
Zebrafish embryos were obtained using standard mating conditions^53 and staged for cell xenoplantation at 48 h post fertilization. After staining of cancer cells (described below), embryos were de-chorionized using micro-forceps and anesthetized with 0.0016% tricaine and positioned on their right side on a wet 1.0% agarose pad. Tumor cells were detached from culture dishes using 0.05% trypsin-EDTA and washed twice with PBS at room temperature. Cells were stained with 2 μg/ml DiI diluted in PBS and washed four times: once with FBS, twice with PBS and then once with 10% FBS diluted in PBS. Cells were kept on ice before injection. Cancer cells were counted by microscopy, suspended in 10% FBS and 100 cells were injected into the center of the yolk sac using an injector equipped with borosilicate glass capillaries (PV820 pneumatic picopump, World Precision Instruments). Injected embryos were transferred to a 96-well plate (one embryo/well) containing drug of interest diluted in […] E3 media (without methylene blue) and maintained at the pre-selected incubation temperature.

[4] = tested on: PEPCK expression in adult zebrafish liver; assay: PEPCK expression in adult zebrafish liver; conditions: 10 μM, 3 h
[5] = tested on: macrophages; assay: Foam cell formation from macrophages treated with oleic acid; format: cell-based; conditions: 10 μM
[6] = tested on: PEPCK expression in HEK cells; assay: PEPCK expression in kidney cells; format: cell-based; conditions: 10 μM, 24 h
Excerpt: as §3

[7] = tested on: pre-adipocytes undergoing adipogenesis; assay: Adipogenesis lipid accumulation (Oil Red O staining); format: cell-based
[8] = tested on: HCT116 cancer cells; assay: Cancer cell invasion (transwell inserts, crystal violet); format: cell-based; conditions: HCT116, normoxia
Procedure: FIG. 7. […] (b) Microscopic images of crystal violet stained HCT116 cells invaded onto the transwell inserts (scale bar=100 μm). […] (d) Microscopic images of crystal violet stained HCT116 cells migrated onto the transwell inserts (scale bar=100 μm). […] Cells were treated with 10 nM taxol and 10 nM vincristine, with or without 10 μM ENOblock. Error=SD; *=P<0.05 between the groups indicated on the graph. […] For the AKT Western blot, cells were treated with ENOblock for 24 h; for the Bcl-Xl Western blot, cells were treated with ENOblock for 48 h.

[9] = tested on: phosphoenolpyruvate carboxykinase (PEPCK) expression in Huh7 hepatocytes; assay: PEPCK expression in hepatocytes; format: cell-based; conditions: 10 μM, 24 h
Excerpt: as §3

[10] = tested on: monocytes; assay: Monocyte differentiation into macrophages (attached cell count, PMA); format: cell-based; conditions: PMA treated; 10 μM
Procedure: (§4) FIG. 14. […] Treatment with 3 mM H2O2 for 48 h was used as a positive control.

[11] = tested on: macrophages; assay: Macrophage cytotoxicity (MTT assay); format: cell-based
Procedure: as §4

[12] = molecular target: T1, enolase in HCT116 cancer cell lysate (Homo sapiens, UniProt P06733); assay: Affinity chromatography / Western blot of affinity matrix eluate, cell lysate; format: binding
T1 construct: endogenous in cells; host or cells: HCT116 colon carcinoma cells (lysate)
T1 sequence (P06733 2-434): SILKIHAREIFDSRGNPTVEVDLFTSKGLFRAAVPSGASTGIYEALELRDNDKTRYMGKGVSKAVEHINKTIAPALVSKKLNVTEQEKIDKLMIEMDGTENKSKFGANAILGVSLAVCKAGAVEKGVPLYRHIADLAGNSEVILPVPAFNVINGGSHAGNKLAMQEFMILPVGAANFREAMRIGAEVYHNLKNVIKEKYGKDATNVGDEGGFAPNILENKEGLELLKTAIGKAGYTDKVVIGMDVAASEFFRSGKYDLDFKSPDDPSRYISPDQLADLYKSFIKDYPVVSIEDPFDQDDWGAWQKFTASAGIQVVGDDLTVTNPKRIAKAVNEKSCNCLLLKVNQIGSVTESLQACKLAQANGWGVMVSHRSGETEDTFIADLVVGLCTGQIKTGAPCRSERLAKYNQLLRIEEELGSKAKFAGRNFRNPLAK
Procedure: as §1, §2

[13] = tested on: zebrafish larvae; assay: Toxicological analysis using the zebrafish larvae system; format: in vivo, zebrafish (Danio rerio); conditions: for microscopic assessment of larvae morphology: 72 days post fertilization (dfp) zebrafish larvae
Procedure: FIG. 9. Toxicological study of ENOblock and in vivo analysis of anticancer activity. (A) Toxicological analysis of ENOblock treatment using the zebrafish larvae system. […] (B) Microscopic assessment of […] post fertilization (dfp) zebrafish larvae exposed to increasing doses of ENOblock. […] Error=SD; *=P<0.05 compared to the DMSO treated group. P value: 20 μM ENOblock=0.0121; 40 μM ENOblock=0.0019. […] DMSO treatment served as a control. Three representative embryos are shown from each experimental group, and distributed cancer cell foci are designated with blue arrows. […] Error=SD; *=P<0.05 compared to the DMSO-treated group.
The zebrafish (Danio rerio) cancer cell xenograft model is gaining increasing research prominence as a validated, convenient tool for testing candidate cancer drugs in vivo.^10,11 In addition, zebrafish is a relevant vertebrate platform for predicting toxicological effects in mammals.^12 We observed that 10 μM ENOblock treatment of developing zebrafish larvae was nontoxic (FIG. 9a-9c).

purified human enolase, sequence (P06733 whole entry): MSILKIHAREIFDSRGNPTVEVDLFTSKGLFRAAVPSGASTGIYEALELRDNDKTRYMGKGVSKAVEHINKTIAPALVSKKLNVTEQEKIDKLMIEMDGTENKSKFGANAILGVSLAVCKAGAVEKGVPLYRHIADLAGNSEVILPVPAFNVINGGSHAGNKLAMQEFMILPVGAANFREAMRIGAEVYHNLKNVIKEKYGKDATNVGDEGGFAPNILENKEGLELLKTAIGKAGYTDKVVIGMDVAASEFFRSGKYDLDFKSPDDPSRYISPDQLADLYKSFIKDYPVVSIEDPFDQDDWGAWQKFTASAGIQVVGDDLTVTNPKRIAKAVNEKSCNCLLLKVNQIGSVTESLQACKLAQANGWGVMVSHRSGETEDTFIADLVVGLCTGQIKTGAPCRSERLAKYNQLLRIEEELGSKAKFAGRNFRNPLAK

For `NCCOCCOCCNC(=O)Cc1ccc(Nc2nc(NCc3ccc(F)cc3)nc(NCC3CCCCC3)n2)cc1` [ENOblock], the “binding of purified enolase to compound affinity matrix” value [1] was “purified human enolase binds to the ENOblock affinity matrix; also recorded: could bind to purified human enolase”, the “competition by free compound for purified enolase binding to ENOblock affinity matrix” value [1] was “inhibited purified enolase binding to the ENOblock affinity matrix” and the AMPK expression [2] was “did not affect expression of the enzymes”. For the same molecule, the “number of embryos showing cancer cell migration and metastasis (dissemination) from the yolk sac injection site” value ([3]; 10 μM for 96 h, DMSO control) was “reduced the number of embryos showing migration and metastasis; also recorded: reduced cancer cell dissemination”, the “quantification of xenotransplanted cancer cell microfoci” value ([3]; 10 μM for 96 h, vs DMSO-treated group) was “significantly reduced cancer cell migration and metastasis” and the “viability of xenotransplanted cancer cells” value ([3]; normoxia) was “without noticeably affecting cancer cell viability”. The “hepatic PEPCK expression in vivo” value [4] was “inhibited PEPCK expression in adult zebrafish liver”, the “foam cell formation (Oil Red O staining, microscopy)” value [5] was “inhibited foam cell formation” and the “foam cell formation (count of cells showing lipid accumulation)” value [5] was “inhibited foam cell formation”. The PEPCK expression [6] was “inhibited expression of PEPCK”, the “lipid accumulation during adipogenesis (Oil Red O, microscopy)” value ([7]; 10 μM) was “inhibited lipid accumulation” and the “quantification of lipid accumulation during adipogenesis” value ([7]; ENOblock treatment with adipogenic cocktail) was “blocked lipid accumulation during adipogenesis”. The cancer cell invasion ([8]; 0.625-2.5 μM) was “inhibited invasion dose-dependently”, the “treatment concentration at which cancer cell invasion is significantly inhibited” value ([8]; P value=0.0481) was 0.625 µM and the PEPCK expression [9] was “inhibited expression of PEPCK”. The “monocyte differentiation into macrophages (number of attached cells)” value [10] was “inhibited differentiation into macrophages”, the “cytotoxicity to macrophages (MTT absorbance 570 nm)” value [11] was “not due to cytotoxicity” and the “competition by free compound for enolase binding to ENOblock affinity matrix” value [12] was “completely inhibited enolase binding to the ENOblock affinity matrix”. For the same molecule, the “binding of lysate proteins/enolase to compound affinity matrix” value ([12]; silver stain, mass spectrometry) was “enolase in HCT116 cancer cell lysate binds to the ENOblock affinity matrix”, the “overall zebrafish larvae viability” value ([13]; 10 μM) was “did not affect viability” and the “overall zebrafish larvae viability” value ([13]; 20 μM) was “reduced overall zebrafish larvae viability”. For the same molecule, the “overall zebrafish larvae viability” value ([13]; 40 μM) was “reduced overall zebrafish larvae viability”, the “microscopic assessment of larvae morphology” value ([13]; 20 μM) was “produced an abnormally large swim bladder” and the “microscopic assessment of larvae morphology” value ([13]; 40 μM) was “produced multiple abnormalities in the larvae”. The “toxicity / tolerability (developmental parameters)” value ([13]; zebrafish larvae, 10 μM) was “could be tolerated by the larvae; also recorded: nontoxic” and the ability to swim ([13]; zebrafish larvae, 20 μM) was “inhibited the ability to swim”.
